Values of other authors, collected in US20080124400A1, “Microparticles With High Loadings Of A Bioactive Agent” (Angiotech International AG, priority 2004, published 2008).

Tests used:
[1] = test system: collagen induced arthritis; details: animal model
[2] = test system: normal chondrocytes and non-proliferating synoviocytes

CC(=O)O[C@H]1C(=O)[C@@]2(C)[C@H]([C@H](OC(=O)c3ccccc3)[C@]3(O)C[C@H](OC(=O)[C@H](O)[C@@H](NC(=O)c4ccccc4)c4ccccc4)C(C)=C1C3(C)C)[C@]1(OC(C)=O)CO[C@@H]1C[C@@H]2O [Paclitaxel, paclitaxel]
neutrophil activation (neutrophil): inhibits neutrophil activation
T-cell response to stimuli and T-cell function (T-cell): decreases T-cell response to stimuli, and inhibits T-cell function
proliferation and apoptosis of synoviocytes (synoviocytes): prevents the proliferation of and induces apoptosis in synoviocytes
AP-1 transcription activity (AP-1): inhibits AP-1 transcription activity
collagen induced arthritis [1]: inhibits collagen induced arthritis
toxicity to non-proliferating cells [2]: non-toxic
